Among the test systems are SK-MEL-28 melanoma; UACC-257 melanoma; CAKI-1 renal; SK-MEL-5 melanoma; KM12 colon; LXFL 529 NSCLC; HL-60(TB) leukemia; HOP-92 NSCLC; DU-145 prostate.
Experiment in all cases: DTP human tumour cell line panel, 48 h

Among the data in PubChem BioAssay (NCI) are TGI and GI50 values, retold here.

Values joined by “and” are separate entries in the source; they are usually repeats but may differ in a detail not shown here. Equal entries are not always repeated.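 In this assay, cells in 96-well plates receive the compound at five concentrations for 48 hours. Endpoints are linearly interpolated between the surrounding concentrations. GI50 = concentration required for 50% inhibition of growth. TGI: concentration producing complete growth inhibition.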

`COc1ccc(/C=C2\CCc3ccccc3C2=O)cc1OC`: the TGI in the assay with SK-MEL-28 melanoma was 73.2 µM; in the assay with UACC-257 melanoma it was 43.1 µM; in the assay with CAKI-1 renal, more than 100 µM; in the assay with SK-MEL-5 melanoma, 30.9 µM; in the assay with KM12 colon it was 39.5 µM; with LXFL 529 NSCLC, more than 100 µM.
Regarding `N#Cc1ccc(NC(=O)Nc2nc3ccc(OC(F)(F)F)cc3s2)cc1`, the GI50 with SK-MEL-28 melanoma was 2310 nM; with UACC-257 melanoma, 1.35 µM; with HL-60(TB) leukemia, 2440 nM; in the assay with HOP-92 NSCLC, 324 nM; with CAKI-1 renal, 1.59 µM; with DU-145 prostate, 2.7 µM. The GI50 in the assay on SK-MEL-5 melanoma was 1150 nM; in the assay on KM12 colon, 1020 nM. The TGI came to 12.3 µM in the assay on SK-MEL-28 melanoma; 6.4 µM in the assay with UACC-257 melanoma; 21.3 µM with HL-60(TB) leukemia; 9.12 µM in the assay on CAKI-1 renal; 13.6 µM in the assay with DU-145 prostate; 2.54 µM in the assay on SK-MEL-5 melanoma. The TGI in the assay with KM12 colon amounted to 6.89 µM.
Regarding `CCC1(N)C(=O)OCc2c1cc1n(c2=O)Cc2cc3ccccc3nc2-1` (centres undefined), the GI50 with SK-MEL-28 melanoma was 41700 nM; with UACC-257 melanoma, 24.4 µM; in the assay on HL-60(TB) leukemia, 4440 nM; with HOP-92 NSCLC it was 28400 nM; in the assay on CAKI-1 renal, 3.26 µM; with DU-145 prostate, 5.79 µM. For the same compound, the results for the GI50 in the assay with SK-MEL-5 melanoma and in the assay with KM12 colon were 7170 nM and 26100 nM, respectively. Besides, the TGI in the assay on SK-MEL-28 melanoma was more than 100 µM; in the assay with UACC-257 melanoma, more than 100 µM; with HOP-92 NSCLC, > 100 µM and 99 µM; in the assay with CAKI-1 renal, > 52.2 µM and 45.9 µM; in the assay with DU-145 prostate, > 68.7 µM and 21.2 µM; in the assay with SK-MEL-5 melanoma, 20.4 µM and > 47.8 µM. Also, the TGI in the assay on KM12 colon was more than 100 µM.
On to `O=S(=O)(NCCNc1cc(-c2cn(-c3ccccc3)nc2-c2cccc(O)c2)ccn1)c1ccc(Br)cc1`, for which the GI50 with SK-MEL-28 melanoma is 2090 nM; in the assay on UACC-257 melanoma, 2.8 µM; with HL-60(TB) leukemia it was 2190 nM; with HOP-92 NSCLC it was 2000 nM; in the assay on CAKI-1 renal, 3.42 µM; in the assay with DU-145 prostate, 3.02 µM. Also, the GI50 in the assay on SK-MEL-5 melanoma was 1640 nM; with KM12 colon it was 2590 nM. For the same compound, the TGI in the assay on SK-MEL-28 melanoma turned out to be 4.78 µM; in the assay with UACC-257 melanoma, 7.07 µM; with HL-60(TB) leukemia it was 5.76 µM; in the assay with HOP-92 NSCLC it was 5.06 µM; in the assay on CAKI-1 renal it was 20.4 µM; in the assay with DU-145 prostate, 11.6 µM. The TGI with SK-MEL-5 melanoma was 3.03 µM; with KM12 colon it was 7.95 µM.
Take `COc1ccc(C(=O)c2cc(C)c(OC)c(C)c2)c(OC)c1N(C(=O)CCl)C(=O)CCl`: the GI50 with SK-MEL-28 melanoma is 168 nM; with UACC-257 melanoma, 16.8 µM; with HL-60(TB) leukemia it was 31.6 nM; with HOP-92 NSCLC, 195 nM; with CAKI-1 renal it was 0.0414 µM; in the assay with DU-145 prostate it was 0.0388 µM. Besides, the GI50 is 55.4 nM in the assay with SK-MEL-5 melanoma and 42.1 nM in the assay with KM12 colon. For the same compound, the TGI was 25.3 µM in the assay on SK-MEL-28 melanoma; more than 88.4 µM in the assay on UACC-257 melanoma; 0.106 µM with HL-60(TB) leukemia; 30.9 µM with HOP-92 NSCLC; 33.5 µM with CAKI-1 renal; 16.8 µM with DU-145 prostate. In addition, the values for the TGI in the assay with SK-MEL-5 melanoma and with KM12 colon were 1.96 µM and 6.07 µM, respectively.
As for `CCCC(=O)Nc1c(I)cc(I)c(CC(CC)C(=O)O)c1I` (centres undefined), the GI50 with SK-MEL-28 melanoma is more than 100000 nM; in the assay with UACC-257 melanoma, more than 100 µM; in the assay with HL-60(TB) leukemia, more than 100000 nM; in the assay with HOP-92 NSCLC, more than 100000 nM; with CAKI-1 renal, more than 100 µM; with DU-145 prostate, more than 100 µM. The GI50 in the assay with SK-MEL-5 melanoma and in the assay on KM12 colon was more than 100000 nM throughout. The TGI in the assay with SK-MEL-28 melanoma, in the assay with UACC-257 melanoma, with HL-60(TB) leukemia, in the assay on HOP-92 NSCLC, with CAKI-1 renal and with DU-145 prostate was more than 100 µM each time. Further, the TGI with SK-MEL-5 melanoma and in the assay on KM12 colon was more than 100 µM each time.
On to `COC(=O)CCCNC(=O)C(=O)c1c(O)c(O)c(C(C)C)c2cc(C)c(-c3c(C)cc4c(C(C)C)c(O)c(O)c(C(=O)C(=O)NCCCC(=O)OC)c4c3O)c(O)c12`, for which the GI50 with SK-MEL-28 melanoma is 1100 nM; with UACC-257 melanoma, 1.77 µM; in the assay with HL-60(TB) leukemia, 931 nM; in the assay with HOP-92 NSCLC it was 370 nM; with CAKI-1 renal it was 1.51 µM; with DU-145 prostate it was 0.556 µM. The GI50 in the assay with SK-MEL-5 melanoma was 1240 nM; with KM12 colon, 164 nM. Further, the TGI is 6.92 µM in the assay with SK-MEL-28 melanoma; 6.19 µM in the assay on UACC-257 melanoma; 6.76 µM in the assay on HL-60(TB) leukemia; 2.13 µM in the assay with HOP-92 NSCLC; more than 32.5 µM in the assay on CAKI-1 renal; 3.74 µM in the assay on DU-145 prostate. Moreover, the TGI with SK-MEL-5 melanoma is 4.7 µM; with KM12 colon, 4.58 µM.
As for `CC(C)=CCc1c(O)c(C(=O)CC(C)C)c(O)c2c(-c3ccccc3)cc(=O)oc12`, the GI50 is 2940 nM with SK-MEL-28 melanoma; 6.52 µM in the assay with UACC-257 melanoma; 7820 nM in the assay with HL-60(TB) leukemia; 1040 nM in the assay on HOP-92 NSCLC; 11 µM in the assay with CAKI-1 renal; 15.5 µM in the assay with DU-145 prostate. The GI50 was 3380 nM with SK-MEL-5 melanoma and 12000 nM in the assay with KM12 colon. The TGI is more than 50 µM with SK-MEL-28 melanoma; 30.2 µM in the assay with UACC-257 melanoma; 27.7 µM in the assay with HL-60(TB) leukemia; 4.84 µM in the assay on HOP-92 NSCLC; 48.3 µM with CAKI-1 renal; more than 50 µM in the assay with DU-145 prostate. The TGI in the assay on SK-MEL-5 melanoma was 12.3 µM; in the assay on KM12 colon it was more than 50 µM.
Regarding `CC1(C)OC2COC(c3[nH]nc4c(=O)[nH]c(=O)[nH]c34)C2O1` (centres undefined), the TGI in the assay on SK-MEL-28 melanoma, in the assay with UACC-257 melanoma, with HL-60(TB) leukemia, in the assay with HOP-92 NSCLC, in the assay with CAKI-1 renal and in the assay with DU-145 prostate was more than 100 µM throughout. In addition, the TGI in the assay with SK-MEL-5 melanoma and in the assay with KM12 colon was more than 100 µM each time.
For `CCCCCC(=C/c1ccccc1)/C=N/N=C(N)N`, the GI50 in the assay on SK-MEL-28 melanoma was 1650 nM; with UACC-257 melanoma, 1.45 µM; with HL-60(TB) leukemia, 451 nM; in the assay with HOP-92 NSCLC, 1450 nM; in the assay with CAKI-1 renal it was 5.16 µM; in the assay with DU-145 prostate, 1.57 µM. Also, the values for the GI50 in the assay with SK-MEL-5 melanoma and with KM12 colon were 1660 nM and 1430 nM, respectively. Moreover, the TGI in the assay with SK-MEL-28 melanoma is 3.06 µM; in the assay on UACC-257 melanoma, 2.83 µM; in the assay on HL-60(TB) leukemia, 1.96 µM; with HOP-92 NSCLC, 3.19 µM; in the assay on CAKI-1 renal it was 21.2 µM; in the assay with DU-145 prostate, 2.94 µM. Besides, the TGI with SK-MEL-5 melanoma was 3.04 µM; with KM12 colon, 2.82 µM.
On to `CCN(CC)c1ccc(/C=N/NC(=O)c2ccccc2Nc2ccnc(C(F)(F)F)c2)c(O)c1`, for which the GI50 is 243 nM with SK-MEL-28 melanoma; 0.303 µM in the assay with UACC-257 melanoma; 162 nM in the assay with HL-60(TB) leukemia; 428 nM with HOP-92 NSCLC; 0.0577 µM in the assay on CAKI-1 renal; 0.134 µM in the assay on DU-145 prostate. Further, the values for the GI50 with SK-MEL-5 melanoma and in the assay on KM12 colon were 143 nM and 268 nM, respectively. For the same compound, the TGI in the assay with SK-MEL-28 melanoma was more than 100 µM; with UACC-257 melanoma, 1.72 µM; with HL-60(TB) leukemia it was 0.518 µM; in the assay with HOP-92 NSCLC, more than 100 µM; with CAKI-1 renal it was 0.387 µM; in the assay with DU-145 prostate it was more than 100 µM. Further, the TGI with SK-MEL-5 melanoma is 0.723 µM; with KM12 colon, more than 100 µM.
Consider `C[C@H](C(O)CC(=O)C(C)(C)O)[C@H]1CC[C@@]2(C)[C@@H]3CC[C@H]4C(C)(C)[C@@H](OC5OC(COC6OC(CO)C(O)C(O)C6O)C(O)C(O)C5O)CC[C@]4(C)C3=CC[C@]12C` (some centres undefined), for which the TGI in the assay with SK-MEL-28 melanoma, in the assay on UACC-257 melanoma, in the assay with HL-60(TB) leukemia, with HOP-92 NSCLC, in the assay with CAKI-1 renal and in the assay on DU-145 prostate was more than 100 µM throughout. In addition, the TGI with SK-MEL-5 melanoma and in the assay with KM12 colon was more than 100 µM each time.
With `O=C(O)CNC(=O)C1NC(C(F)(F)F)(C(F)(F)F)OC1(C(F)(F)F)C(F)(F)F` (centres undefined), the TGI in the assay with SK-MEL-28 melanoma, in the assay with UACC-257 melanoma, in the assay with HL-60(TB) leukemia, in the assay on HOP-92 NSCLC, in the assay with CAKI-1 renal and in the assay on DU-145 prostate was more than 100 µM in each case. Also, the concentration for total growth inhibition (TGI) in the assay with SK-MEL-5 melanoma and with KM12 colon was more than 100 µM each time.
In the case of `O=C(Nc1ccc(N2CCNCC2)cn1)c1[nH]ncc1Nc1ncnc2sccc12`, the GI50 with SK-MEL-28 melanoma is 1950 nM; in the assay with UACC-257 melanoma it was 16.4 µM; with HL-60(TB) leukemia, 2990 nM; in the assay on HOP-92 NSCLC it was 1760 nM; in the assay on CAKI-1 renal, 3.89 µM; with DU-145 prostate, 3.57 µM. Further, the GI50 with SK-MEL-5 melanoma is 1710 nM; with KM12 colon, 3310 nM. The TGI in the assay on SK-MEL-28 melanoma is 3.83 µM; in the assay on UACC-257 melanoma, 36.7 µM; with HL-60(TB) leukemia, 22.6 µM; with HOP-92 NSCLC, 5.65 µM; in the assay with CAKI-1 renal, more than 100 µM; in the assay with DU-145 prostate it was 12.2 µM. For the same compound, the TGI is 3.26 µM in the assay on SK-MEL-5 melanoma and 11.5 µM in the assay with KM12 colon.
Consider `COCC(=O)NC/C=C/c1ccc2ncnc(Nc3ccc(Oc4ccc(C)nc4)c(C)c3)c2c1`, for which the GI50 was 12900 nM in the assay on SK-MEL-28 melanoma; 14.9 µM in the assay with UACC-257 melanoma; 21900 nM with HL-60(TB) leukemia; 6480 nM in the assay on HOP-92 NSCLC; 3.31 µM in the assay with CAKI-1 renal; 9.54 µM in the assay on DU-145 prostate. Further, the GI50 in the assay with SK-MEL-5 melanoma is 3260 nM; with KM12 colon, 18700 nM. In addition, the TGI was 30.6 µM with SK-MEL-28 melanoma; 36.1 µM in the assay with UACC-257 melanoma; 59 µM in the assay with HL-60(TB) leukemia; 36.3 µM in the assay with HOP-92 NSCLC; 49.5 µM in the assay on CAKI-1 renal; more than 100 µM in the assay with DU-145 prostate. Also, the TGI with SK-MEL-5 melanoma is 13 µM; in the assay on KM12 colon, 53 µM.
